# Measurements reported in ChEMBL document CHEMBL1201862, “PubChem BioAssay data set” (2004).
#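 Five concentrations, 48 hours, 96-well plates. The concentration for 50% growth inhibition is given as GI50.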 Calls of active or inactive are those of the source. Rule as the data show it: active = GI50 up to about 1.1 µM and inactive = higher. Where a SMILES comes first, the peptide text is derived from it. [ ]: non-standard residue; d: D form. The star is where a group is joined. ξ: configuration not given here. ξNMe2Val = CC(C)C(C(=O)*)N(C)C; NMeV = CN[CH](C(=O)O)C(C)C; NHBn = c1ccc(CN*)cc1
# Assays:
# Assay in all cases: NCI anticancer screen, dose series, 48 h
# SNB-19 = system: SNB-19
# T47D = system: T47D
# SNB-75 = system: SNB-75
# HL-60 = system: HL-60
# OVCAR-5 = system: OVCAR-5
# HCT-15 = system: HCT-15
# HCC 2998 = system: HCC 2998
# CAKI-1 = system: CAKI-1
# MDA-N = system: MDA-N
# OVCAR-3 = system: OVCAR-3
# SF-295 = system: SF-295
# HT-29 = system: HT-29
# NCI/ADR-RES = system: NCI/ADR-RES
# UACC-257 = system: UACC-257
# 786-0 = system: 786-0
# SK-MEL-28 = system: SK-MEL-28
# UO-31 = system: UO-31
# NCI-H23 = system: NCI-H23
# COLO 205 = system: COLO 205
# NCI-H522 = system: NCI-H522
# ACHN = system: ACHN
# MCF7 = system: MCF7
# A549 = system: A549
# PC-3 = system: PC-3
# RXF 393 = system: RXF 393
# SN12C = system: SN12C
# M14 = system: M14
# HOP-92 = system: HOP-92
# NCI-H226 = system: NCI-H226
# IGROV-1 = system: IGROV-1
# Malme-3M = system: Malme-3M
# SK-OV-3 = system: SK-OV-3
# NCI-H460 = system: NCI-H460
# UACC-62 = system: UACC-62
# DU-145 = system: DU-145
# MDA-MB-435 = system: MDA-MB-435
# TK-10 = system: TK-10
# HOP-62 = system: HOP-62
# SK-MEL-2 = system: SK-MEL-2
# RPMI-8226 = system: RPMI-8226
# SR = system: SR
# SW-620 = system: SW-620
# HCT-116 = system: HCT-116
# U-251 = system: U-251
# LOX IMVI = system: LOX IMVI
# SK-MEL-5 = system: SK-MEL-5
# KM12 = system: KM12
# CCRF-CEM = system: CCRF-CEM
# SF-539 = system: SF-539
# EKVX = system: EKVX
# MDA-MB-231 = system: MDA-MB-231
# K562 = system: K562
# A498 = system: A498
# OVCAR-8 = system: OVCAR-8
# SF-268 = system: SF-268
# Hs-578T = system: Hs-578T
# MOLT-4 = system: MOLT-4
# OVCAR-4 = system: OVCAR-4
# BT-549 = system: BT-549
smiles,measurement,setting,value
c1ccc([P+](CCN2Cc3ccccc3C2)(c2ccccc2)c2ccccc2)cc1,GI50,SNB-19,6.7 µM (inactive)
same,GI50,T47D,2.4 µM (inactive)
same,GI50,SNB-75,2.12 µM (inactive)
same,GI50,HL-60,2.77 µM (inactive)
same,GI50,OVCAR-5,16.6 µM (inactive)
same,GI50,HCT-15,12.7 µM
same,GI50,HCC 2998,2.94 µM (inactive)
same,GI50,CAKI-1,38.3 µM (inactive)
same,GI50,MDA-N,3.27 µM (inactive)
same,GI50,OVCAR-3,3.13 µM (inactive)
same,GI50,SF-295,6.92 µM (inactive)
same,GI50,HT-29,3.52 µM (inactive)
same,GI50,NCI/ADR-RES,69.5 µM (inactive)
same,GI50,UACC-257,2.35 µM (inactive)
same,GI50,786-0,8.17 µM (inactive)
same,GI50,SK-MEL-28,2.74 µM (inactive)
same,GI50,UO-31,12.1 µM (inactive)
same,GI50,NCI-H23,5.46 µM (inactive)
same,GI50,COLO 205,1.56 µM (inactive)
same,GI50,NCI-H522,2.73 µM (inactive)
same,GI50,ACHN,5.69 µM (inactive)
same,GI50,MCF7,3.59 µM (inactive)
same,GI50,A549,4.99 µM (inactive)
same,GI50,PC-3,4.8 µM (inactive)
same,GI50,RXF 393,5.35 µM (inactive)
same,GI50,SN12C,4.56 µM (inactive)
same,GI50,M14,5.36 µM (inactive)
same,GI50,HOP-92,1.08 µM (active)
same,GI50,NCI-H226,3.84 µM (inactive)
same,GI50,IGROV-1,0.368 µM (active)
same,GI50,Malme-3M,8.59 µM (inactive)
same,GI50,SK-OV-3,20.7 µM (inactive)
same,GI50,NCI-H460,5.79 µM (inactive)
same,GI50,UACC-62,2.85 µM (inactive)
same,GI50,DU-145,5.87 µM (inactive)
same,GI50,MDA-MB-435,3.58 µM (inactive)
same,GI50,TK-10,10.4 µM (inactive)
same,GI50,HOP-62,8.67 µM (inactive)
same,GI50,SK-MEL-2,2.27 µM (inactive)
same,GI50,RPMI-8226,0.051 µM (active)
same,GI50,SR,4.33 µM (inactive)
same,GI50,SW-620,4.22 µM (inactive)
same,GI50,HCT-116,3 µM (inactive)
same,GI50,U-251,2.19 µM (inactive)
same,GI50,LOX IMVI,3.84 µM (inactive)
same,GI50,SK-MEL-5,2.04 µM (inactive)
same,GI50,KM12,3.23 µM (inactive)
same,GI50,CCRF-CEM,2.64 µM (inactive)
same,GI50,SF-539,6.15 µM (inactive)
same,GI50,EKVX,3.84 µM (inactive)
same,GI50,MDA-MB-231,3.94 µM (inactive)
same,GI50,K562,2.79 µM (inactive)
same,GI50,A498,18 µM (inactive)
same,GI50,OVCAR-8,2.32 µM (inactive)
same,GI50,SF-268,5.77 µM (inactive)
same,GI50,Hs-578T,12.5 µM (inactive)
same,GI50,MOLT-4,6.44 µM (inactive)
CC1(C)C2CCC(CN)(C2)C1O (stereo unspecified),GI50,SNB-19,> 100 µM (inactive)
same,GI50,SNB-75,> 100 µM (inactive)
same,GI50,HL-60,> 100 µM (inactive)
same,GI50,HCT-15,> 100 µM
same,GI50,HCC 2998,> 100 µM (inactive)
same,GI50,CAKI-1,> 100 µM (inactive)
same,GI50,MDA-N,> 100 µM (inactive)
same,GI50,NCI/ADR-RES,80.2 µM (inactive)
same,GI50,OVCAR-4,> 100 µM (inactive)
same,GI50,UACC-257,> 100 µM (inactive)
same,GI50,SK-MEL-28,> 100 µM (inactive)
same,GI50,UO-31,> 100 µM (inactive)
same,GI50,NCI-H23,> 100 µM (inactive)
same,GI50,ACHN,> 100 µM (inactive)
same,GI50,SN12C,> 100 µM (inactive)
same,GI50,HOP-92,> 100 µM (inactive)
same,GI50,NCI-H226,> 100 µM (inactive)
same,GI50,NCI-H460,> 100 µM (inactive)
same,GI50,UACC-62,> 100 µM (inactive)
same,GI50,MDA-MB-435,65.6 µM (inactive)
same,GI50,TK-10,> 100 µM (inactive)
same,GI50,RPMI-8226,> 100 µM (inactive)
same,GI50,SR,> 100 µM (inactive)
same,GI50,SW-620,> 100 µM (inactive)
same,GI50,U-251,> 100 µM (inactive)
same,GI50,KM12,> 100 µM (inactive)
same,GI50,CCRF-CEM,> 100 µM (inactive)
same,GI50,EKVX,> 100 µM (inactive)
same,GI50,MDA-MB-231,> 100 µM (inactive)
same,GI50,K562,> 100 µM (inactive)
same,GI50,BT-549,> 100 µM (inactive)
same,GI50,A498,> 100 µM (inactive)
same,GI50,OVCAR-8,> 100 µM (inactive)
same,GI50,SF-268,> 100 µM (inactive)
same,GI50,MOLT-4,> 100 µM (inactive)
CC(C)C(NC(=O)C(C(C)C)N(C)C)C(=O)N(C)C(C(=O)N1CCCC1C(=O)N1CCCC1C(=O)NCc1ccccc1)C(C)C (stereo unspecified) (ξNMe2Val-V[NMeV]PP-NHBn; configuration not given here),GI50,SNB-19,< 0.01 µM (active)
same,GI50,SNB-75,0.172 µM (active)
same,GI50,HL-60,< 0.0001 µM (active)
same,GI50,OVCAR-5,0.0675 µM (active)
same,GI50,HCT-15,< 0.0001 µM
same,GI50,HCC 2998,< 0.0001 µM (active)
same,GI50,CAKI-1,< 0.0001 µM (active)
same,GI50,MDA-N,< 0.0001 µM (active)
same,GI50,SF-295,< 0.0001 µM (active)
same,GI50,HT-29,< 0.0001 µM (active)
same,GI50,NCI/ADR-RES,0.00179 µM (active)
same,GI50,OVCAR-4,15.7 µM (inactive)
same,GI50,UACC-257,< 0.0001 µM (active)
same,GI50,786-0,< 0.0001 µM (active)
same,GI50,UO-31,0.0015 µM (active)
same,GI50,NCI-H23,< 0.0001 µM (active)
same,GI50,COLO 205,< 0.0001 µM (active)
same,GI50,NCI-H522,< 0.01 µM (active)
same,GI50,ACHN,< 0.0001 µM (active)
same,GI50,A549,< 0.0001 µM (active)
same,GI50,PC-3,< 0.0001 µM (active)
same,GI50,RXF 393,0.0175 µM (active)
same,GI50,SN12C,< 0.0001 µM (active)
same,GI50,M14,< 0.0001 µM (active)
same,GI50,HOP-92,< 0.0001 µM (active)
same,GI50,NCI-H226,< 0.0001 µM (active)
same,GI50,IGROV-1,< 0.0001 µM (active)
same,GI50,Malme-3M,< 0.01 µM (active)
same,GI50,SK-OV-3,0.000221 µM (active)
same,GI50,NCI-H460,< 0.0001 µM (active)
same,GI50,UACC-62,< 0.0001 µM (active)
same,GI50,DU-145,< 0.0001 µM (active)
same,GI50,MDA-MB-435,< 0.0001 µM (active)
same,GI50,HOP-62,< 0.0001 µM (active)
same,GI50,SK-MEL-2,< 0.0001 µM (active)
same,GI50,RPMI-8226,< 0.0001 µM (active)
same,GI50,SR,< 0.0001 µM (active)
same,GI50,SW-620,< 0.0001 µM (active)
same,GI50,HCT-116,< 0.0001 µM (active)
same,GI50,U-251,< 0.0001 µM (active)
same,GI50,LOX IMVI,< 0.0001 µM (active)
same,GI50,SK-MEL-5,< 0.0001 µM (active)
same,GI50,KM12,< 0.0001 µM (active)
same,GI50,CCRF-CEM,< 0.0001 µM (active)
same,GI50,SF-539,< 0.01 µM (active)
same,GI50,EKVX,0.0187 µM (active)
same,GI50,MDA-MB-231,< 0.0001 µM (active)
same,GI50,K562,0.001 µM (active)
same,GI50,BT-549,< 0.0001 µM (active)
same,GI50,A498,< 0.01 µM (active)
same,GI50,OVCAR-8,< 0.0001 µM (active)
same,GI50,SF-268,< 0.0001 µM (active)
same,GI50,Hs-578T,< 0.0001 µM (active)
same,GI50,MOLT-4,< 0.0001 µM (active)
